The values below come from publication PMC11423540, “Synthesis and biological evaluation of ortho-phenyl phenylhydroxamic acids containing phenothiazine with improved selectivity for class IIa histone deacetylases” (Journal of Enzyme Inhibition and Medicinal Chemistry, 2024).

The target of one assay is T1, HDAC8 (Homo sapiens, UniProt Q9BY41).
T1 sequence (Q9BY41 1-377): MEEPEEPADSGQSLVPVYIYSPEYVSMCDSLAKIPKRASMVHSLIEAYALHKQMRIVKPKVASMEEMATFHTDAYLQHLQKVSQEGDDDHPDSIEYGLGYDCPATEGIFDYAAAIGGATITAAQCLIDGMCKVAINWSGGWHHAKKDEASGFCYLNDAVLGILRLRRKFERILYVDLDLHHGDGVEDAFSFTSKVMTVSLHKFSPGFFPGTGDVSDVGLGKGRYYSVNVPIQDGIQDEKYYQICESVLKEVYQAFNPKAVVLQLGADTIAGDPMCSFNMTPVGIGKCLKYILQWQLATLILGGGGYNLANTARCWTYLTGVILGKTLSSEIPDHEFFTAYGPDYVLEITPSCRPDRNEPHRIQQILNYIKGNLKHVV
Also noted: method as in PMID 33570940. The conditions noted are these: cited from earlier work.

Assay [1] has as its system HeLa nuclear HDACs. Details: method as in PMID 33845233. The conditions noted are these: introduction, earlier work; read-out: IC50 class I HDACs; cited from earlier work.
Assay [2] deals with HeLa nuclear HDACs. In words: HDAC inhibition assay, HeLa nuclear extract (mixture of class I HDACs 1, 2, and 3). The conditions noted are these: read-out: IC50 HeLa nuclear HDACs, Boc-Lys-(AMC) substrate.
Another assay has as its system SCM-1 cells. In words: Cell viability (MTT) assay, SCM-1. It counts as cell-based. The conditions noted are these: human gastric cancer cells, read-out: IC50 of cytotoxicity SCM-1. An excerpt: (§1) Human breast cancer MDA-MB-231 cells and gastric cancer SCM-1 cells were purchased from the American Type Culture Collection (Manasas, VA, USA). SCC2095 human oral cancer cells were kindly provided by Professor Susan R. Mallery (The Ohio State University). Normal human lung fibroblasts (NHLFs; CC-2512) were purchased from the Lonza (Walkersville, MD, USA). SCM-1 cells were maintained in RPMI-1640 medium (Invitrogen, Carlsbad, CA, USA); MDA-MB-231 and SCC2095 cells were maintained in DMEM/F12 (Invitrogen); and NHLFs were maintained in FGM™-2 medium (Lonza) with 2% serum, supplemented with 10% heat-inactivated foetal bovine serum (FBS; Gibco, Grand Island, NY, USA). All cells were cultured at 37 °C in a humidified incubator containing 5% CO2 and 95% relative humidity.
(§2) To assess cell viability, cells were seeded in three replicates into 96-well plates at a density of 5×10^3/well for 24 h following incubation with compounds at the indicated concentrations. Then, cell viability was assessed with 3–(4,5-dimethylthiazol-2-yl)-2,5-diphenyltetrazolium bromide (MTT) solution (0.5 mg/mL) for 4h as described previously. After removing the medium, 200 µL of DMSO was added, and then the absorbance was measured at 570 nm using a plate reader (BMG LABTECH, Germany).

The test system of assay [3] is SCC2095 cells. In words: Cell viability (MTT) assay, SCC2095. It counts as cell-based. The conditions noted are these: Homo sapiens, 48 h, human oral cancer cells, read-out: IC50 of cytotoxicity SCC2095. How it is done: Human breast cancer MDA-MB-231 cells and gastric cancer SCM-1 cells were purchased from the American Type Culture Collection (Manasas, VA, USA). SCC2095 human oral cancer cells were kindly provided by Professor Susan R. Mallery (The Ohio State University).
as §2

For assay [4], the system named is SCC2095 cells. In words: Western blotting of caspase- and HDAC-related proteins. The assay is classed as cell-based, human. The conditions noted are these: SCC2095, DNA damage biomarker, western blot. How it is done: The protein expression was performed as previously described. Proteins were resolved on 10% SDS-PAGE, then transferred to PVDF (Bio-Rad) membranes. After blocking with 5% skimmed milk in PBS containing 0.1% Tween 20, the membranes were probed with primary antibodies against interest target proteins at 4 °C overnight. The following primary antibodies were used: […], cleaved caspase 9, acetyl α-tubulin, Hsp90, Histone H2A.X, p38, p-^180Thr/^182Tyr p38, PPARγ, and p21 were purchased from Cell Signalling Technologies (Beverly, MA, USA); pro-caspase 8, Millipore; β-actin, Sigma-Aldrich (St. Louis, MO, USA). Then, the immunoblots were washed and exposed to HRP-conjugated secondary antibodies at room temperature for 1 h. The immunoblots were examined by enhanced chemiluminescence.
(In general: Immunoblotting shows a protein as a band on a membrane.)

Assay [5] deals with SCC2095 cells. In words: ROS determination by flow cytometry (DCFH-DA probe). The assay is classed as cell-based, human. The conditions noted are these: SCC2095, 12 h or 24 h. How it is done: Cells (2 × 10^5) were treated with tested compounds in 6-well plates for 24 h or 48 h, then washed with ice-cold PBS twice and harvested with trypsin. Cells were incubated with 5 µL Annexin V- FITC/PI (BD Pharmingen, San Diego) for 15 min in the dark condition. Then, the cells were measured by BD FACSCanto flow cytometer (BD, Franklin Lakes, NJ). For ROS determination, DMSO or H2O2 or compound 7 g-treated cells were stained with the ROS probe (DCFH-DA; 5 µM) and detected the DCFH-DA fluorescence.

The next assay has as its system MDA-MB-231 cells. In words: Cell viability (MTT) assay, MDA-MB-231. The assay is classed as cell-based. The conditions noted are these: human breast cancer cells, read-out: IC50 of cytotoxicity MDA-MB-231.
Text: as §1, §2

Molecules are shown by their SMILES. Read-outs that look alike come from different tables or passages of the source.

Turning to `O=C(NO)c1ccc(CN2C(=O)c3ccccc3S2(=O)=O)cc1-c1ccccc1` [Compound 1], the IC50 (in general, the point on the concentration scale where inhibition reaches its midpoint) at HDAC8 was 70 nM.

On to `NC(=O)c1ccc2c(c1)N(Cc1ccc(C(=O)NO)cc1)c1ccccc1S2` [LH4f, reference compound], for which the IC50 was 100 nM in the assay on HeLa nuclear HDACs [1] and 100 ± 20 nM in the assay with HeLa nuclear HDACs [2].

On to `CC(=O)O[C@H]1C(=O)[C@@]2(C)[C@H]([C@H](OC(=O)c3ccccc3)[C@]3(O)C[C@H](OC(=O)[C@H](O)[C@@H](NC(=O)c4ccccc4)c4ccccc4)C(C)=C1C3(C)C)[C@]1(OC(C)=O)CO[C@@H]1C[C@@H]2O` [Paclitaxel, reference compound], for which, in the assay with SCM-1 cells, the IC50 was 80 ± 10 nM.

As to `O=C(NCC1(c2nc(-c3ccccc3)cs2)CCOCC1)c1cccc(-c2noc(C(F)(F)F)n2)c1` [TMP269, reference compound], the IC50 in the assay on SCC2095 cells [3] worked out at 18.1 ± 3.8 µM. Further, the “phosphorylation of Histone H2A.X” value in the assay with SCC2095 cells [4] is recorded as “increased”. Moreover, in the assay on SCC2095 cells [5], the ROS generation result is listed as “increased”.

With `CC/C(=C(\c1ccccc1)c1ccc(OCCN(C)C)cc1)c1ccccc1` [Tamoxifen, reference compound], the concentration for half-maximal inhibition (IC50) in the assay on MDA-MB-231 cells came out at 11.4 ± 0.9 µM.
